The values that follow come from patent US20110171309A1, “Compositions and Methods for Composite Nanoparticle Hydrogels” (Board of Regents, The University of Texas System, priority 2008, published 2011).

The test system of one data set is NIH/3T3 fibroblast cells. The settings on record: concentrations 0.05% (w/w); cited from earlier work.
In data set [1] the test system is human aortic smooth muscle cells. Briefly: Combined effects of photoinitiator and UV exposure on cell survival, MTS assay. In kind it is cell-based. The settings on record: 3 days. How it is done: (§1) Human aortic smooth muscle cells (HASMC) were cultured in complete medium consisting of Dulbecco's modified Eagle medium supplemented with 10% fetal bovine serum and 1% penicillin-streptomycin (Invitrogen, Carlsbad, Calif.). Upon 80-90% confluency, the cells were passaged or used for experiments. For all experiments, the cells were seeded in 24-well plates (Corning, Corning, N.Y.) at a density of 7000 cells per well. Following seeding, the cells were incubated at 37 °C and 5% CO2 in a humid environment for 2 days to allow cellular attachment and growth. After 2 days, the HASMCs were exposed to varying concentrations of the photoinitiator Irgacure 2959 (Ciba Specialty Chemicals), and/or UV exposure.
The cellular damage due to the combined effects of photoinitiator and UV exposure was evaluated. Briefly, the HASMCs were seeded onto 24-well plates and allowed to grow for 2 days. Irgacure 2959 solutions with final concentrations of 0.01%, 0.015%, 0.04%, and 0.08% (w/v) in complete media were prepared. After adding these solutions, cells were incubated for 30 min to allow for the mixing of the photoinitiator. The well plates were then exposed to 1, 3, and 5 min of UV light. Wells containing cells not exposed to either UV light or photoinitiator solution served as controls for this experiment. Cell samples were incubated for 3 days before analyzing the cell survival. […] The cell survival for the controls was determined to be 1±0.09.
(§2) After the experiments, the cell survival was quantified using the MTS assay (CellTiter 961 Aqueous One Solution Cell Proliferation Assay, Promega) following the manufacturer's instructions. The cells were incubated with the MTS reagent for 4 h, after which 200 μL of the solution was transferred to 96-well plates, and absorbance was read at 490 nm using a microplate reader (VMax, Molecular Devices). Relative cell survival was obtained by dividing the absorbance reading of a cell sample by the mean absorbance value of the control.
Background: Formazan colour is commonly taken as a measure of viable cells.

The test system is the same in data set [2]. Briefly: Cytotoxic effects of photoinitiator concentrations, MTS assay. The data set is classed as cell-based. To be noted: no UV, 3 days. The protocol: as §1
To evaluate the cytotoxic effects of photoinitiator concentrations on HASMCs, the cells were seeded and cultured as described earlier. Irgacure 2959 was directly dissolved in complete media to obtain final concentrations of 0.01%, 0.02%, 0.04%, 0.08%, and 0.16% (w/v). These photoinitiator concentrations were well within the range required for photopolymerization in a short period of time. […] These solutions were then sterilized using 0.2-μm syringe filters before they were added to the HASMCs. The control wells consisted of cells incubated with photoinitiator-free complete media. After the addition of the photoinitiator, the cells were incubated for 3 days, and then cell survival was determined using MTS assays. The cell survival for the controls was determined to be 1±0.09. […] Upon increasing the photoinitiator concentrations above 0.02% (w/v), a statistically significant decrease was noticed in the relative cell survival.
as §2

Data set [3] has the same test system. Briefly: Ascorbic acid scavenging of free radicals to increase cell survival, MTS assay. The data set is classed as cell-based. The settings on record: 50 mg/L ascorbic acid, 0.15% (w/v) Irgacure 2959, 5 min UV, 3 days. How it is done:
The efficiency of the antioxidant, ascorbic acid, was evaluated in scavenging the free radicals in an effort to increase cell survival. HASMCs were exposed to 0.15% (w/v) solution of Irgacure 2959 in complete media supplemented with varying concentrations of ascorbic acid (0-200 mg/L). After incubating for 30 min, the cells were exposed to 5 min of UV light, and cell survival was quantified after 3 days. To evaluate the effect of added antioxidants on the gelation time, the gelation times (i.e., the time required for the materials to form a gel) were determined using three methods on 96-well plates. […] Then, the solution was monitored at that this specific wavelength AQ3 (610 nm) over a time course. The result was graphed as function of time, and the gelation time was defined as the time that had the highest changes in the absorbance intensities.
as §2

Molecules are shown by their SMILES.

Consider `CC(C)(O)C(=O)c1ccc(OCCO)cc1` [Irgacure 2959, 2-hydroxy-1-[4-(2-hydroxyethoxy)phenyl]-2-methyl-1-propanone], for which the fibroblast survival entry in the data set on NIH/3T3 fibroblast cells is “does not affect fibroblast survival”. The relative cell survival result was “did not show any statistically significant decrease in relative cell survival” in data set [1] (0.01% (w/v), 1, 3 and 5 min UV); “did not show any statistically significant decrease in relative cell survival” in data set [1] (0.015% (w/v), 1, 3 and 5 min UV); 0.76±0.05 in data set [1] (0.04% (w/v), 1 min UV); 0.74±0.04 in data set [1] (0.04% (w/v), 3 min UV); 0.67±0.05 in data set [1] (0.04% (w/v), 5 min UV); 1.03±0.10 in data set [2] (0.01% (w/v)). Moreover, the relative cell survival in data set [2] (0.02% (w/v)) was determined as 0.85±0.09; in data set [2] (0.16% (w/v)), 0.25±0.01. In data set [2] (below 0.02% (w/v)), the cell survival result was “no significant decrease in cell survival”.

`O=C1O[C@H]([C@@H](O)CO)C(O)=C1O` [ascorbic acid]: the “relative cell survival compared to samples without ascorbic acid” value in data set [3] is reported as “significantly improve the relative cell survival rates”.
